Earlier results in patent publication US7413751B2, “Methods of treatment using a gastric retained losartan dosage” (Depomed, Inc., priority 2001, dated 2008).
Like-named read-outs stand apart in the source and are kept apart here.

Experiments:
[1] = test system: diastolic pressure response to angiotensin II

| half-life (Japanese patients tested) [h] | half-life (in vivo) [h] | tmax (in vivo) [h] | Structure (SMILES) | effects at 24 hours ([1]; 25 mg dosage) | effects at 24 hours ([1]; 50 mg and 100 mg dosages) | peak:trough blood pressure ratio (5-6 hours after dosing: 24 hours after dosing) ([1]; 50 mg dosage) [%] | peak:trough blood pressure ratio (5-6 hours after dosing: 24 hours after dosing) ([1]; 100 mg dosage) [%] | blockade of the diastolic pressure response to angiotensin II ([1]; 24 hours after dosing) |
| --- | --- | --- | --- | --- | --- | --- | --- | --- |
| 4 to 5 | 6 to 9 | 2 to 4 | CCCCc1nc(Cl)c(C(=O)O)n1Cc1ccc(-c2ccccc2-c2nn[nH]n2)cc1 [active metabolite of losartan potassium] |  |  |  |  |  |
|  |  |  | CCCCc1nc(Cl)c(CO)n1Cc1ccc(-c2ccccc2-c2nnn[nH]2)cc1.[K] [losartan potassium, 2-butyl-4-chloro-1[p-(o-1H-tetrazol-5-ylphenyl)benzyl]imidazole-5-methanol monopotassium salt] | not | observed | 60 | 72 | approximately 30% |
